Measured values published in ChEMBL document CHEMBL2434905, “2-Amino-6-chloro-3,4-dihydroquinazoline: A novel 5-HT3 receptor antagonist with antidepressant character” (Bioorg Med Chem Lett, 2013).
The source made the active and inactive calls. The rule behind the calls is not given here.

Tested on: Mus musculus
Assay: Antidepressant activity in ICR mouse assessed as immobility time at 20 mg/kg, ip by tail suspension test
Type: functional, organism-based
Parameters: dose 20 mg/kg

Row | SMILES | Activity
1 | CNCCC(Oc1ccc(C(F)(F)F)cc1)c1ccccc1 (configuration not stated) | Active
2 | CN(C)CCCN1c2ccccc2CCc2ccccc21 | Active
